Measured values published in ChEMBL document CHEMBL1201862, “PubChem BioAssay data set” (2004).
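Grown in 96-well plates, cells were treated for 48 hours with each compound at five concentrations. Insufficient inhibition: endpoint recorded as highest concentration tested. GI50 is the concentration that inhibits growth by half.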 The source made the active and inactive calls. No stated cut-off is given here; in the data, active = GI50 up to about 1.1 µM and inactive = higher.

Key:
Assay in all cases: NCI-60 cell line screen, 48 h
HCT-116 = tested on: HCT-116
Malme-3M = tested on: Malme-3M
CAKI-1 = tested on: CAKI-1
XF498 = tested on: XF498
NCI-H23 = tested on: NCI-H23
NCI/ADR-RES = tested on: NCI/ADR-RES
MCF7 = tested on: MCF7
HOP-92 = tested on: HOP-92
SF-539 = tested on: SF-539
DU-145 = tested on: DU-145
U-251 = tested on: U-251
NCI-H460 = tested on: NCI-H460
HT-29 = tested on: HT-29
DMS-114 = tested on: DMS-114
MDA-MB-231 = tested on: MDA-MB-231
UACC-62 = tested on: UACC-62
SF-268 = tested on: SF-268
Hs-578T = tested on: Hs-578T
BT-549 = tested on: BT-549
A549 = tested on: A549
MDA-MB-435 = tested on: MDA-MB-435
SF-295 = tested on: SF-295
ACHN = tested on: ACHN
HCT-15 = tested on: HCT-15
KM12 = tested on: KM12
OVCAR-8 = tested on: OVCAR-8
HOP-62 = tested on: HOP-62
DLD-1 = tested on: DLD-1
MOLT-4 = tested on: MOLT-4
HOP-18 = tested on: HOP-18
RXF 393 = tested on: RXF 393
LXFL 529 = tested on: LXFL 529
RPMI-8226 = tested on: RPMI-8226
SN12C = tested on: SN12C
IGROV-1 = tested on: IGROV-1
NCI-H522 = tested on: NCI-H522
CCRF-CEM = tested on: CCRF-CEM
COLO 205 = tested on: COLO 205
SK-MEL-5 = tested on: SK-MEL-5
DMS-273 = tested on: DMS-273
OVCAR-4 = tested on: OVCAR-4
KM-20L2 = tested on: KM-20L2
786-0 = tested on: 786-0
EKVX = tested on: EKVX
T47D = tested on: T47D
PC-3 = tested on: PC-3
MDA-N = tested on: MDA-N
HL-60 = tested on: HL-60
UACC-257 = tested on: UACC-257
SW-620 = tested on: SW-620
SR = tested on: SR
SK-MEL-2 = tested on: SK-MEL-2
SNB-78 = tested on: SNB-78
K562 = tested on: K562
UO-31 = tested on: UO-31
M14 = tested on: M14
SK-OV-3 = tested on: SK-OV-3
RXF 631 = tested on: RXF 631
M19-MEL = tested on: M19-MEL
SNB-75 = tested on: SNB-75
TK-10 = tested on: TK-10
HCC 2998 = tested on: HCC 2998
NCI-H226 = tested on: NCI-H226
OVCAR-3 = tested on: OVCAR-3
A498 = tested on: A498
OVCAR-5 = tested on: OVCAR-5
LOX IMVI = tested on: LOX IMVI
SNB-19 = tested on: SNB-19
SK-MEL-28 = tested on: SK-MEL-28

In the case of `COc1cc(/C=C2\CCC(CN(C)C)C2=O)ccc1OC(=O)c1ccccc1` (centres undefined), the GI50 (HCT-116) is reported as 6.68 µM (inactive), the GI50 (Malme-3M) is reported as 15.9 µM (inactive) and the GI50 (CAKI-1) is reported as 17.1 µM (inactive). For the same compound, the GI50 (XF498) was 20.3 µM (inactive), the GI50 (NCI-H23) was 16.1 µM (inactive) and the GI50 (NCI/ADR-RES) was 16.5 µM (inactive). For the same compound, the GI50 (MCF7) was 6.25 µM (inactive), the GI50 (HOP-92) was 17.4 µM (inactive) and the GI50 (SF-539) was 14.1 µM (inactive). For the same compound, the GI50 (DU-145) was 16.3 µM (inactive), the GI50 (U-251) was 16.2 µM (inactive) and the GI50 (NCI-H460) was 19.3 µM (inactive). The GI50 (HT-29) was 8.07 µM (inactive), the GI50 (DMS-114) was 15.8 µM (inactive) and the GI50 (MDA-MB-231) was 5.47 µM (inactive). For the same compound, the GI50 (UACC-62) was 16.5 µM (inactive), the GI50 (SF-268) was 12.3 µM (inactive) and the GI50 (Hs-578T) was 8.02 µM (inactive). For the same compound, the GI50 (BT-549) was 16.1 µM (inactive), the GI50 (A549) was 23.6 µM (inactive) and the GI50 (MDA-MB-435) was 14.3 µM (inactive). The GI50 (SF-295) was 17.7 µM (inactive), the GI50 (ACHN) was 15.3 µM (inactive) and the GI50 (HCT-15) was 8.17 µM. For the same compound, the GI50 (KM12) was 2.99 µM (inactive), the GI50 (OVCAR-8) was 8.59 µM (inactive) and the GI50 (HOP-62) was 16.3 µM (inactive). For the same compound, the GI50 (DLD-1) was 4.67 µM (inactive), the GI50 (MOLT-4) was 2.28 µM (inactive) and the GI50 (HOP-18) was 16.9 µM (inactive). The GI50 (RXF 393) was 7.8 µM (inactive), the GI50 (LXFL 529) was 2.88 µM (inactive) and the GI50 (RPMI-8226) was 2.31 µM (inactive). For the same compound, the GI50 (SN12C) was 10.8 µM (inactive), the GI50 (IGROV-1) was 13.8 µM (inactive) and the GI50 (NCI-H522) was 4 µM (inactive). For the same compound, the GI50 (CCRF-CEM) was 1.96 µM (inactive), the GI50 (COLO 205) was 5.69 µM (inactive) and the GI50 (SK-MEL-5) was 15.5 µM (inactive). The GI50 (DMS-273) was 11.1 µM (inactive), the GI50 (OVCAR-4) was 12.4 µM (inactive) and the GI50 (KM-20L2) was 15.9 µM (inactive). For the same compound, the GI50 (786-0) was 3.76 µM (inactive), the GI50 (EKVX) was 14.2 µM (inactive) and the GI50 (T47D) was 3.76 µM (inactive). For the same compound, the GI50 (PC-3) was 16.4 µM (inactive), the GI50 (MDA-N) was 15.4 µM (inactive) and the GI50 (HL-60) was 1.91 µM (inactive). For the same compound, the GI50 (UACC-257) was 13.5 µM (inactive), the GI50 (SW-620) was 5.07 µM (inactive) and the GI50 (SR) was 2.56 µM (inactive). For the same compound, the GI50 (SK-MEL-2) was 17.9 µM (inactive), the GI50 (SNB-78) was 19.2 µM (inactive) and the GI50 (K562) was 2.32 µM (inactive). The GI50 (UO-31) was 16.3 µM (inactive), the GI50 (M14) was 9.51 µM (inactive) and the GI50 (SK-OV-3) was 23.1 µM (inactive). For the same compound, the GI50 (RXF 631) was 11.2 µM (inactive), the GI50 (M19-MEL) was 8.57 µM (inactive) and the GI50 (SNB-75) was 16 µM (inactive). For the same compound, the GI50 (TK-10) was 11.3 µM (inactive), the GI50 (HCC 2998) was 16.3 µM (inactive) and the GI50 (NCI-H226) was 18.2 µM (inactive). For the same compound, the GI50 (OVCAR-3) was 8.91 µM (inactive), the GI50 (A498) was 18.3 µM (inactive) and the GI50 (OVCAR-5) was 18.8 µM (inactive). The GI50 (LOX IMVI) was 3.86 µM (inactive), the GI50 (SNB-19) was 11.4 µM (inactive) and the GI50 (SK-MEL-28) was 15.1 µM (inactive).
